Experimental data as given in patent publication US20250250230A1, “HETEROCYCLIC COMPOUND” (TAKEDA PHARMACEUTICAL COMPANY LIMITED, priority 2022, published 2025).

Target: T1, human orexin type 2 receptor (Homo sapiens, UniProt O43614)
T1 construct: expressed in transfected cells
T1 sequence (O43614 1-444): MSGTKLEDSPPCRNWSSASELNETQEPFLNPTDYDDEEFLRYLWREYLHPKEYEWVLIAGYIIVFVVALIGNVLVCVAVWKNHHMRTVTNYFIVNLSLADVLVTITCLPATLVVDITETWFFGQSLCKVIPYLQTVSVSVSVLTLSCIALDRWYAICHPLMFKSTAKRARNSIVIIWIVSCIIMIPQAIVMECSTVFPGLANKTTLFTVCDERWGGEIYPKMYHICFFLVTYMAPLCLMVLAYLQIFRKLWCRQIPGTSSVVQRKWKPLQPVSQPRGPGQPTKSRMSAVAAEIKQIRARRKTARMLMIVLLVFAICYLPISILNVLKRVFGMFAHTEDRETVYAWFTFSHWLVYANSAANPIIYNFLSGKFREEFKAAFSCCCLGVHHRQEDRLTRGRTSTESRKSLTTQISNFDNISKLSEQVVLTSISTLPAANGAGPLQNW
Assay: Measurement of orexin type 2 receptor agonist activity (calcium fluorescence, Fluo-4 AM, FDSS)
Assay type: cell-based
Settings: test compound 3 μM; CHO cells expressing human OX2 receptor; DMSO = 0%, orexin A (human) = 100%
How it was run: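 Agonist response scaled between vehicle (0%) and human orexin A at 10 nM final (100%), from 2-min kinetic Fluo-4 fluorescence reads. Stable hOX2R CHO-K1 clone, dye-loaded in HBSS/20 mM HEPES/0.1% BSA with 1.25 mM probenecid before compound addition.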

SMILES | OX2R agonist activity (3 μM, %) [%]
CS(=O)(=O)NC1CCCN(C(=O)C2CC2c2ccccc2-c2ccccc2F)C1 (racemic) [Example 72, a mixture of rac-N-{(3R)-1-[(1R,2R)-2-(2′-fluoro[1,1′-biphenyl]-2-yl)cyclopropane-1-carbonyl]piperidin-3-yl}methanesulfonamide and rac-N-{(3S)-1-[(1R,2R)-2-(2′-fluoro[1,1′-biphenyl]-2-yl)cyclopropane-1-carbonyl]piperidin-3-yl}methanesulfonamide] | 81
CC1(NS(C)(=O)=O)CCCN(C(=O)[C@@H]2C[C@H]2c2ccccc2-c2c(F)cccc2F)CC1 (mixture of isomers) [Example 313, a mixture of N-{(4R)-1-[(1R,2R)-2-(2′,6′-difluoro[1,1′-biphenyl]-2-yl)cyclopropane-1-carbonyl]-4-methylazepan-4-yl}methanesulfonamide and N-{(4S)-1-[(1R,2R)-2-(2′,6′-difluoro[1,1′-biphenyl]-2-yl)cyclopropane-1-carbonyl]-4-methylazepan-4-yl}methanesulfonamide] | 97
CCCS(=O)(=O)NC[C@@H]1[C@H](F)CN1C(=O)[C@@H]1C[C@@]1(F)c1ccc(F)cc1-c1c(F)cccc1F [Example 433, N-({(2R,3R)-3-fluoro-1-[(1S,2S)-2-fluoro-2-(2′,5,6′-trifluoro[1,1′-biphenyl]-2-yl)cyclopropane-1-carbonyl]azetidin-2-yl}methyl)propane-1-sulfonamide] | 95
Cc1scc(-c2c(F)cccc2F)c1C1CC1C(=O)N1CCC(NS(C)(=O)=O)C1 (racemic) [Example 329, a mixture of rac-N-[(3R)-1-{(1R,2R)-2-[4-(2,6-difluorophenyl)-2-methylthiophen-3-yl]cyclopropane-1-carbonyl}pyrrolidin-3-yl]methanesulfonamide and rac-N-[(3S)-1-{(1R,2R)-2-[4-(2,6-difluorophenyl)-2-methylthiophen-3-yl]cyclopropane-1-carbonyl}pyrrolidin-3-yl]methanesulfonamide] | 91
CS(=O)(=O)NC1CCN(C(=O)C2CC2c2ccccc2-c2c(F)cccc2Cl)C1 (racemic) [Example 15, a mixture of rac-N-{(3R)-1-[(1R,2R)-2-(2′-chloro-6′-fluoro[1,1′-biphenyl]-2-yl)cyclopropane-1-carbonyl]pyrrolidin-3-yl}methanesulfonamide and rac-N-{(3S)-1-[(1R,2R)-2-(2′-chloro-6′-fluoro[1,1′-biphenyl]-2-yl)cyclopropane-1-carbonyl]pyrrolidin-3-yl}methanesulfonamide] | 92
CN(C)S(=O)(=O)NC1COCCN(C(=O)[C@@H]2C[C@H]2c2ccccc2-c2c(F)cccc2F)C1 (stereo partly drawn) [Example 295, N′-{(6S)-4-[(1R,2R)-2-(2′,6′-difluoro[1,1′-biphenyl]-2-yl)cyclopropane-1-carbonyl]-1,4-oxazepan-6-yl}-N,N-dimethylsulfuric diamide, or N′-{(6R)-4-[(1R,2R)-2-(2′,6′-difluoro[1,1′-biphenyl]-2-yl)cyclopropane-1-carbonyl]-1,4-oxazepan-6-yl}-N,N-dimethylsulfuric diamide] | 100
Cc1ccc(C2CC2C(=O)N2CCCC(NS(C)(=O)=O)C2)c(-c2c(F)cccc2F)c1 (racemic) [Example 166, a mixture of rac-N-{(3R)-1-[(1R,2R)-2-(2′,6′-difluoro-5-methyl[1,1′-biphenyl]-2-yl)cyclopropane-1-carbonyl]piperidin-3-yl}methanesulfonamide and rac-N-{(3S)-1-[(1R,2R)-2-(2′,6′-difluoro-5-methyl[1,1′-biphenyl]-2-yl)cyclopropane-1-carbonyl]piperidin-3-yl}methanesulfonamide] | 110
CCS(=O)(=O)N[C@@H]1CN(C(=O)[C@@H]2C[C@H]2c2ccccc2-c2c(F)cccc2F)CCC1(F)F [Example 240, N-{(3R)-1-[(1R,2R)-2-(2′,6′-difluoro[1,1′-biphenyl]-2-yl)cyclopropane-1-carbonyl]-4,4-difluoropiperidin-3-yl}ethanesulfonamide] | 100
CNS(=O)(=O)N[C@H]1CCN(C(=O)[C@@H]2C[C@H]2c2ccccc2-c2c(F)cccc2F)C1 [Example 335, N-{(3S)-1-[(1R,2R)-2-(2′,6′-difluoro[1,1′-biphenyl]-2-yl)cyclopropane-1-carbonyl]pyrrolidin-3-yl}-N′-methylsulfuric diamide] | 96
CN(C)S(=O)(=O)NC[C@@H]1CN(C(=O)[C@@H]2C[C@H]2c2ccccc2-c2c(F)cccc2F)CCO1 [Example 299, N′-({(2S)-4-[(1R,2R)-2-(2′,6′-difluoro[1,1′-biphenyl]-2-yl)cyclopropane-1-carbonyl]morpholin-2-yl}methyl)-N,N-dimethylsulfuric diamide] | 90
CCS(=O)(=O)NC12CC1CN(C(=O)C1CC1c1ccccc1-c1c(F)cccc1F)C2 (racemic) [Example 237, a mixture of rac-N-{(1S,5R)-3-[(1R,2R)-2-(2′,6′-difluoro[1,1′-biphenyl]-2-yl)cyclopropane-1-carbonyl]-3-azabicyclo[3.1.0]hexan-1-yl}ethanesulfonamide and rac-N-{(1R,5S)-3-[(1R,2R)-2-(2′,6′-difluoro[1,1′-biphenyl]-2-yl)cyclopropane-1-carbonyl]-3-azabicyclo[3.1.0]hexan-1-yl}ethanesulfonamide] | 99
CS(=O)(=O)NC1CCN(C(=O)C2CC2c2ccccc2-c2cc(F)ccc2F)C1 (racemic) [Example 80, a mixture of rac-N-{(3R)-1-[(1R,2R)-2-(2′,5′-difluoro[1,1′-biphenyl]-2-yl)cyclopropane-1-carbonyl]pyrrolidin-3-yl}methanesulfonamide and rac-N-{(3S)-1-[(1R,2R)-2-(2′,5′-difluoro[1,1′-biphenyl]-2-yl)cyclopropane-1-carbonyl]pyrrolidin-3-yl}methanesulfonamide] | 66

Results, then the molecule that gave them:

OX2R agonist activity (3 μM, %) [%] | SMILES
95 | CS(=O)(=O)N[C@@H](CO)C1CCN1C(=O)[C@@H]1C[C@@]1(F)c1ccccc1-c1c(F)cccc1F (stereo partly drawn) [Example 385, N-[(1R)-1-{(2R)-1-[(1S,2S)-2-(2′,6′-difluoro[1,1′-biphenyl]-2-yl)-2-fluorocyclopropane-1-carbonyl]azetidin-2-yl}-2-hydroxyethyl]methanesulfonamide, or N-[(1R)-1-{(2S)-1-[(1S,2S)-2-(2′,6′-difluoro[1,1′-biphenyl]-2-yl)-2-fluorocyclopropane-1-carbonyl]azetidin-2-yl}-2-hydroxyethyl]methanesulfonamide]
96 | CS(=O)(=O)NC[C@H]1[C@H](C(F)F)CN1C(=O)[C@@H]1C[C@@]1(F)c1ccccc1-c1c(F)cccc1F [Example 405, N-{[(2R,3R)-1-[(1S,2S)-2-(2′,6′-difluoro[1,1′-biphenyl]-2-yl)-2-fluorocyclopropane-1-carbonyl]-3-(difluoromethyl)azetidin-2-yl]methyl}methanesulfonamide]
76 | O=C([C@@H]1C[C@@]1(F)c1ccc(F)cc1-c1c(F)cccc1F)N1C[C@@H](F)[C@H]1CNS(=O)(=O)CC1CC1 [Example 445, 1-cyclopropyl-N-({(2R,3R)-3-fluoro-1-[(1S,2S)-2-fluoro-2-(2′,5,6′-trifluoro[1,1′-biphenyl]-2-yl)cyclopropane-1-carbonyl]azetidin-2-yl}methyl)methanesulfonamide]
88 | CC1[C@@H](NS(C)(=O)=O)CCN1C(=O)[C@@H]1C[C@H]1c1ccccc1-c1c(F)cccc1F (mixture of isomers) [Example 261, a mixture of N-{(2R,3R)-1-[(1R,2R)-2-(2′,6′-difluoro[1,1′-biphenyl]-2-yl)cyclopropane-1-carbonyl]-2-methylpyrrolidin-3-yl}methanesulfonamide and N-{(2S,3S)-1-[(1R,2R)-2-(2′,6′-difluoro[1,1′-biphenyl]-2-yl)cyclopropane-1-carbonyl]-2-methylpyrrolidin-3-yl}methanesulfonamide]
98 | C[C@@H]1CN(C(=O)[C@@H]2C[C@@]2(F)c2ccc(F)cc2-c2c(F)cccc2F)[C@@H]1CNS(C)(=O)=O [Example 386, N-({(2S,3R)-1-[(1S,2S)-2-fluoro-2-(2′,5,6′-trifluoro[1,1′-biphenyl]-2-yl)cyclopropane-1-carbonyl]-3-methylazetidin-2-yl}methyl)methanesulfonamide]
101 | CS(=O)(=O)N[C@H]1CCN(C(=O)C2CC2(F)c2ccccc2-c2c(F)cccc2F)C1 (mixture of isomers) [Example 198, a mixture of N-{(3S)-1-[(1R,2R)-2-(2′,6′-difluoro[1,1′-biphenyl]-2-yl)-2-fluorocyclopropane-1-carbonyl]pyrrolidin-3-yl}methanesulfonamide and N-{(3S)-1-[(1S,2S)-2-(2′,6′-difluoro[1,1′-biphenyl]-2-yl)-2-fluorocyclopropane-1-carbonyl]pyrrolidin-3-yl}methanesulfonamide]
